{"source": "patent US8389247B2", "about": "“Physiogenomic method for predicting diabetes and metabolic syndromes induced by psychotropic drugs” (priority 2006, dated 2013)", "assay": "Outcome variables of patients on each psychotropic drug broken down by demographic factors (Covariates tables)", "assay_type": "in vivo, human", "description": "Various SNPs associated with, for example, the observation of various parameters of metabolic syndromes in patients on psychotropic drugs were screened. The endpoints analyzed were the blood levels of LDL, HDL, and glucose; blood pressure; body mass index; waist circumference; and metabolic syndromes index. The physiogenomic model was developed using the following procedure: 1) Establish a covariate model using only the demographic and clinical variables, 2) Screen for associated genetic markers by testing each SNP against the unexplained residual of the covariate model, and 3) Establish a revised model incorporating the significant associations from the SNP screen.", "data": [{"smiles": "OCCOCCN1CCN(C2=Nc3ccccc3Sc3ccccc32)CC1", "note": "[Quetiapine, quetiapine]", "values": [{"measurement": "LDL (LDL cholesterol level)", "setting": "Age 20-30", "result": 91.35}, {"measurement": "LDL (LDL cholesterol level)", "setting": "Age 30-40", "result": 102.92}, {"measurement": "LDL (LDL cholesterol level)", "setting": "Age 40-50", "result": 94.39}, {"measurement": "LDL (LDL cholesterol level)", "setting": "Age 50-60", "result": 97.33}, {"measurement": "LDL (LDL cholesterol level)", "setting": "Age 60-70", "result": 88.00}, {"measurement": "LDL (LDL cholesterol level)", "setting": "Age <20", "result": 87.40}, {"measurement": "LDL (LDL cholesterol level)", "setting": "All patients on the drug", "result": 96.71}, {"measurement": "LDL (LDL cholesterol level)", "setting": "Gender female", "result": 92.89}, {"measurement": "LDL (LDL cholesterol level)", "setting": "Gender male", "result": 99.19}, {"measurement": "LDL (LDL cholesterol level)", "setting": "Heritage AA", "result": 94.38}, {"measurement": "LDL (LDL cholesterol level)", "setting": "Heritage Cauc.", "result": 96.93}, {"measurement": "BM", "setting": "human, in vivo", "result": 87.05}, {"measurement": "BMI", "setting": "human, in vivo", "result": 29.44}, {"measurement": "Glucose", "setting": "human, in vivo", "result": 92.08}, {"measurement": "HDL", "setting": "human, in vivo", "result": 49.79}, {"measurement": "Log (TG)", "setting": "human, in vivo", "result": 5.263}, {"measurement": "MSI", "setting": "human, in vivo", "result": 0.2625}, {"measurement": "TC", "setting": "human, in vivo", "result": 192.33}, {"measurement": "dBP", "setting": "human, in vivo", "result": 75.04}, {"measurement": "sBP", "setting": "human, in vivo", "result": 120.07}, {"measurement": "LDL", "setting": "patients on the named drug", "result": 96.71}]}, {"smiles": "Cc1nc2n(c(=O)c1CCN1CCC(c3noc4cc(F)ccc34)CC1)CCCC2", "note": "[Risperidone, risperidone]", "values": [{"measurement": "BM", "setting": "Age 20-30", "result": 77.82}, {"measurement": "BMI", "setting": "Age 20-30", "result": 25.55}, {"measurement": "Glucose", "setting": "Age 20-30", "result": 85.42}, {"measurement": "HDL", "setting": "Age 20-30", "result": 43.50}, {"measurement": "LDL", "setting": "Age 20-30", "result": 93.20}, {"measurement": "TC", "setting": "Age 20-30", "result": 166.80}, {"measurement": "Waist", "setting": "Age 20-30", "result": 92.78}, {"measurement": "dBP", "setting": "Age 20-30", "result": 75.20}, {"measurement": "log (TG)", "setting": "Age 20-30", "result": 4.801}, {"measurement": "sBP", "setting": "Age 20-30", "result": 116.80}, {"measurement": "BM", "setting": "Age 30-40", "result": 77.98}, {"measurement": "BMI", "setting": "Age 30-40", "result": 25.60}, {"measurement": "Glucose", "setting": "Age 30-40", "result": 93.38}, {"measurement": "HDL", "setting": "Age 30-40", "result": 52.19}, {"measurement": "LDL", "setting": "Age 30-40", "result": 92.69}, {"measurement": "TC", "setting": "Age 30-40", "result": 185.54}, {"measurement": "Waist", "setting": "Age 30-40", "result": 92.34}, {"measurement": "dBP", "setting": "Age 30-40", "result": 76.77}, {"measurement": "log (TG)", "setting": "Age 30-40", "result": 5.129}, {"measurement": "sBP", "setting": "Age 30-40", "result": 118.04}, {"measurement": "BM", "setting": "Age 40-50", "result": 77.81}, {"measurement": "BMI", "setting": "Age 40-50", "result": 25.80}, {"measurement": "Glucose", "setting": "Age 40-50", "result": 95.03}, {"measurement": "HDL", "setting": "Age 40-50", "result": 52.00}, {"measurement": "LDL", "setting": "Age 40-50", "result": 100.78}, {"measurement": "TC", "setting": "Age 40-50", "result": 181.71}, {"measurement": "Waist", "setting": "Age 40-50", "result": 97.23}, {"measurement": "dBP", "setting": "Age 40-50", "result": 75.10}, {"measurement": "log (TG)", "setting": "Age 40-50", "result": 4.888}, {"measurement": "sBP", "setting": "Age 40-50", "result": 115.73}, {"measurement": "BM", "setting": "Age 50-60", "result": 76.52}, {"measurement": "BMI", "setting": "Age 50-60", "result": 29.45}, {"measurement": "Glucose", "setting": "Age 50-60", "result": 109.00}, {"measurement": "HDL", "setting": "Age 50-60", "result": 59.50}, {"measurement": "LDL", "setting": "Age 50-60", "result": 85.80}, {"measurement": "TC", "setting": "Age 50-60", "result": 185.70}, {"measurement": "Waist", "setting": "Age 50-60", "result": 100.50}, {"measurement": "dBP", "setting": "Age 50-60", "result": 74.20}, {"measurement": "log (TG)", "setting": "Age 50-60", "result": 5.182}, {"measurement": "sBP", "setting": "Age 50-60", "result": 123.80}, {"measurement": "BM", "setting": "Age 60-70", "result": 87.60}, {"measurement": "BMI", "setting": "Age 60-70", "result": 26.40}, {"measurement": "Glucose", "setting": "Age 60-70", "result": 103.00}, {"measurement": "HDL", "setting": "Age 60-70", "result": 54.00}, {"measurement": "LDL", "setting": "Age 60-70", "result": 111.00}, {"measurement": "TC", "setting": "Age 60-70", "result": 191.00}, {"measurement": "Waist", "setting": "Age 60-70", "result": 103.00}, {"measurement": "dBP", "setting": "Age 60-70", "result": 80.00}, {"measurement": "log (TG)", "setting": "Age 60-70", "result": 4.875}, {"measurement": "sBP", "setting": "Age 60-70", "result": 118.00}, {"measurement": "BM", "setting": "Age <20", "result": 97.73}, {"measurement": "BMI", "setting": "Age <20", "result": 28.93}, {"measurement": "Glucose", "setting": "Age <20", "result": 91.67}, {"measurement": "HDL", "setting": "Age <20", "result": 60.00}, {"measurement": "LDL", "setting": "Age <20", "result": 113.00}, {"measurement": "TC", "setting": "Age <20", "result": 197.33}, {"measurement": "Waist", "setting": "Age <20", "result": 110.33}, {"measurement": "dBP", "setting": "Age <20", "result": 71.33}, {"measurement": "log (TG)", "setting": "Age <20", "result": 4.778}, {"measurement": "sBP", "setting": "Age <20", "result": 123.33}, {"measurement": "BM", "setting": "All", "result": 78.42}, {"measurement": "BMI", "setting": "All", "result": 26.16}, {"measurement": "Glucose", "setting": "All", "result": 94.14}, {"measurement": "HDL", "setting": "All", "result": 51.37}, {"measurement": "LDL", "setting": "All", "result": 96.18}, {"measurement": "TC", "setting": "All", "result": 180.69}, {"measurement": "Waist", "setting": "All", "result": 95.90}, {"measurement": "dBP", "setting": "All", "result": 75.40}, {"measurement": "log (TG)", "setting": "All", "result": 4.958}, {"measurement": "sBP", "setting": "All", "result": 117.58}, {"measurement": "BM", "setting": "Gender female", "result": 73.38}, {"measurement": "BMI", "setting": "Gender female", "result": 27.05}, {"measurement": "Glucose", "setting": "Gender female", "result": 91.57}, {"measurement": "HDL", "setting": "Gender female", "result": 55.74}, {"measurement": "LDL", "setting": "Gender female", "result": 94.32}, {"measurement": "TC", "setting": "Gender female", "result": 179.74}, {"measurement": "Waist", "setting": "Gender female", "result": 95.39}, {"measurement": "dBP", "setting": "Gender female", "result": 74.74}, {"measurement": "log (TG)", "setting": "Gender female", "result": 4.861}, {"measurement": "sBP", "setting": "Gender female", "result": 116.84}, {"measurement": "BM", "setting": "Gender male", "result": 81.45}, {"measurement": "BMI", "setting": "Gender male", "result": 25.62}, {"measurement": "Glucose", "setting": "Gender male", "result": 95.68}, {"measurement": "HDL", "setting": "Gender male", "result": 48.73}, {"measurement": "LDL", "setting": "Gender male", "result": 97.30}, {"measurement": "TC", "setting": "Gender male", "result": 181.27}, {"measurement": "Waist", "setting": "Gender male", "result": 96.20}, {"measurement": "dBP", "setting": "Gender male", "result": 75.79}, {"measurement": "log (TG)", "setting": "Gender male", "result": 5.017}, {"measurement": "sBP", "setting": "Gender male", "result": 118.03}, {"measurement": "BM", "setting": "Heritage AA", "result": 80.46}, {"measurement": "BMI", "setting": "Heritage AA", "result": 27.14}, {"measurement": "Glucose", "setting": "Heritage AA", "result": 115.56}, {"measurement": "HDL", "setting": "Heritage AA", "result": 58.50}, {"measurement": "LDL", "setting": "Heritage AA", "result": 95.50}, {"measurement": "TC", "setting": "Heritage AA", "result": 173.80}, {"measurement": "Waist", "setting": "Heritage AA", "result": 92.90}, {"measurement": "dBP", "setting": "Heritage AA", "result": 78.00}, {"measurement": "log (TG)", "setting": "Heritage AA", "result": 4.478}, {"measurement": "sBP", "setting": "Heritage AA", "result": 117.80}, {"measurement": "BM", "setting": "Heritage Cauc.", "result": 78.19}, {"measurement": "BMI", "setting": "Heritage Cauc.", "result": 26.05}, {"measurement": "Glucose", "setting": "Heritage Cauc.", "result": 92.00}, {"measurement": "HDL", "setting": "Heritage Cauc.", "result": 50.58}, {"measurement": "LDL", "setting": "Heritage Cauc.", "result": 96.25}, {"measurement": "TC", "setting": "Heritage Cauc.", "result": 181.45}, {"measurement": "Waist", "setting": "Heritage Cauc.", "result": 96.23}, {"measurement": "dBP", "setting": "Heritage Cauc.", "result": 75.11}, {"measurement": "log (TG)", "setting": "Heritage Cauc.", "result": 5.011}, {"measurement": "sBP", "setting": "Heritage Cauc.", "result": 117.56}, {"measurement": "BM", "setting": "patients on the named drug", "result": 78.42}, {"measurement": "BMI", "setting": "patients on the named drug", "result": 26.16}, {"measurement": "Glucose", "setting": "patients on the named drug", "result": 94.14}, {"measurement": "HDL", "setting": "patients on the named drug", "result": 51.37}, {"measurement": "LDL", "setting": "patients on the named drug", "result": 96.18}, {"measurement": "Log (TG)", "setting": "patients on the named drug", "result": 4.958}, {"measurement": "TC", "setting": "patients on the named drug", "result": 180.69}, {"measurement": "Waist", "setting": "patients on the named drug", "result": 95.90}, {"measurement": "dBP", "setting": "patients on the named drug", "result": 75.40}, {"measurement": "sBP", "setting": "patients on the named drug", "result": 117.58}]}]}
